# pIC50: −log10 of the molar value. Where two headings read alike, the source gives them in different places. Starred links: 1 amine or outer side, 2 acyl side, 3 side chain; linkers in the order of their positions; H or OH if unused. Non-standard residues stand in square brackets, D forms with d. Residues, ends and D or L forms follow the SMILES beside them. azaPhe = O=C(N(Cc1ccccc1)N[*:1])[*:2]; X2 = O=C(N(CCc1ccccc1)N[*:1])[*:2]; azaLeu = CC(C)CN(N[*:1])C(=O)[*:2]; X1 = O=C(N(CC1CCCCC1)N[*:1])[*:2]; azaPro = O=C(N1CCCN1[*:1])[*:2]
# What was measured:
# [1] = molecular target: human GHS-R1a (Homo sapiens (Human), UniProt Q92847); assay: GHS-R1a binding assay, competition with 125I-ghrelin on membranes of LLC-PK1 cells expressing human GHS-R1a; details: for binding affinity for GHS-R1a receptor in words: compared with GHRP-6
# Experimental: Rat ghrelin was radio iodinated with Na^125I using the lodo-Beads iodination reagent (Pierce #28665). Briefly, an lodo-bead was incubated with 2 mCi of Na^125I (Amersham) in 100 μL of 50 mM sodium phosphate buffer, pH 7.0 for 5 min at 22° C. The reaction was started by adding 20 nmol of the peptide (1 mM in 0.1 M acetic acid). The tube was incubated for 10 min at 22° C. The iodination was terminated by adding 1 mL of 0.1% TFA. The mono-iodinated peptide was purified by reverse-phase HPLC using a Vydac C18 ([…]) column (30 cm×0.39 cm) in combination with a binary elution system of (A) 0.1% TFA in H2O and (B) 0.1% TFA, 10% H2O, 90% acetonitrile. Fractions of 0.5 mL were collected and analyzed by its radioactive content.
# Cells (1.4×10^6) were plated in 100 mm plates and transfected 24 h later with pCDNA3.1-hGHS-R1a (UMR cDNA Resource Center #GHSR0A0000) following the CaHPO4 precipitation method. Briefly, 40 μg of plasmid DNA was diluted in 500 μL of sterile H2O and added to an equal volume of a 4× CaCl2, pH 7.9 solution (2 mM Tris-HCl, 0.2 mM EDTA, 500 mM CaCl2). The mixture was then added slowly with air bubbles to 1 mL of 2× Hepes-buffered saline, pH 7.1 (50 mM Hepes, 280 mM NaCl, 1.5 mM Na2HPO4). After 30 min at room temperature, 1 mL was distributed evenly over the cells and let overnight. The medium was changed the next morning and the membrane preparation was made two days later.
# Cells were washed twice with PBS and once with ice-cold homogenization buffer (50 mM Tris-HCl, pH 7.3, 5 mM MgCl2, 2.5 mM EDTA, 30 μg/ml bacitracin). Cells were scraped and harvested in 1.5 mL tubes. Cells were then lysed by temperature shock with two freeze/thaw cycles in liquid nitrogen. The tubes were centrifuged at 14000 g for 20 min. Pellets were resuspended in homogenization buffer and stored at −80° C. until used. Total protein concentrations were determined with the BCA protein assay kit (Pierce).
# Competition experiments were performed by incubating 50 μg of LLC-PK1 membranes expressing human GHS-R1a with 15 fmol of ^125I-Ghrelin and increasing concentrations of unlabeled ghrelin or with increasing concentrations of azapeptides derivatives in 0.5 mL of binding buffer. Bound radiolabelled ligand was separated from free by filtration on Whatman GF/C filters pretreated with a 1% polyethylenimine solution. Filters were washed with 2×3 mL of washing buffer (50 mM Tris-HCl, pH 7.3, 10 mM MgCl2, 2.5 mM EDTA, 0.015% Triton X-100). Filters were counted in a LKB gamma counter. Curves were analyzed using Prism software (GraphPad Software Inc).
# [2] = molecular target: CD36 (Rattus norvegicus (Rat), UniProt Q07969); assay: CD36 receptor covalent photolabelling binding assay, competition with [125I]Tyr-Bpa-Ala-hexarelin on rat cardiac membranes; details: for binding activity/affinity at CD36 in words: compared with parent peptide GHRP-6 or hexarelin
# Experimental: The hearts from Sprague Dawley rats (300 g-325 g) from Charles River, used as a source of cardiac membranes, were prepared as follows: the heart was washed with ice-cold saline, and fatty and connective tissue was removed. The tissue was cut into small pieces with scissors and placed in a Sorvall centrifuge tube containing 5 ml/g of fresh tissue of Buffer A (10 mM NaHCO3, 5 mM NaN3, 10 μM Pefabloc, 0.1 μM Aprotinin, 1 μM Pepstatin A, 1 μM Leupeptin, pH 7.0). The suspension was homogenized with a Polytron at low speed, 3×15 sec. The homogenate was centrifuged at 8 700×g for 20 min and the supernatant was put on ice. The pellet was resuspended and homogenized with a Glass-teflon Potter by 5 strokes. The homogenate was centrifuged at 8 700×g for 10 min and this supernatant was combined with the first supernatant. The supernatant fluid was centrifuged at 35 000×g for 20 min, yielding a second pellet fraction that was suspended thoroughly in a glass homogenizer with a Teflon pestle in 20 ml/g of fresh tissue of Buffer B (20 mM Tris-maleate, 0.6M KCl, pH 6.8). The resulting suspension was centrifuged again at 35 000×g for 60 min. The third pellet fraction was resuspended thoroughly in a glass homogenizer with a Teflon pestle in 20 ml/g of fresh tissue of Buffer C (10 mM Tris/HCl buffer pH 7.4) followed with another centrifugation at 35 000×g for 60 min. The harvested precipitate was then suspended in a small volume (1-2 ml/g of fresh tissue) of 50 mM Tris/HCl buffer pH 7.4) containing 2 mM EGTA. The resulting membrane preparation was frozen at −80° C. Protein concentration was determined with bicinchoninic acid (BCA) method, using BSA as standard.
# The iodination procedure was performed in the darkness. […] The reaction was started by adding 5 ul (3 nmol) of H2O2. The incubation was carried out at 22° C. for 5 min. The addition of H2O2 was repeated twice with 5 min incubation each time. The reaction was stopped with the addition of 1.4 ml of 0.1% TFA. The iodinated peptide was purified on a reverse-phase Vydac C18 column with a 60 min linear gradient (1 ml/min) from 20% to 50% acetonitrile (90%) in 0.1% TFA (10%).
# Nonspecific binding was defined as binding not displaced by 50 μM corresponding peptide. All peptide containing solutions were diluted in Buffer B. Buffer A and B were degassed under vacuum, and used in capped tubes in order to minimize lipid peroxydation. Before the incubation period, all tubes were put under a low flow of nitrogen. All material was kept on ice and the binding assay was performed in darkness. After an incubation period of 60 min at 22° C. […] After centrifugation at 12 000×g for 15 minutes, the pellets were resuspended in 150 μl of sample buffer (62 mM Tris-HCl, pH 6.8, 2% SDS, 10% glycerol, 15% 2-mercapto-ethanol, and 0.05% bromophenol blue), and boiled for 5 min prior to being subjected to electrophoresis. Proteins (200 μg/100 μl) were separated on 7.5% SDS-PAGE (45 V overnight). The gels resulting from SDS/PAGE were fixed, colored in Coomassie Brilliant Blue R-250, dried, exposed to a storage phosphor intensifying screen (Amersham Biosciences), and analysed by using a Typhoon PhosphorImager (Amersham Biosciences) and ImageQuant 5.0 software to establish competition curves. Protein bands were quantified by densitometry. The covalent binding signal of 87 kDa was analyzed by densitometry using Typhoon Phospholmager™ (Typhoon, Amersham Biosciences) and ImageQuant 5.0® software to set competition curves.
# Specific binding activities were defined as the ratio of the density of the protein band to that of a non-specific band. Results are expressed as the percentage of the density of the […] to that of the total binding band.
# [3] = Table 5, read-out: IC50 Binding GHS-R1a
# [4] = Table 6, read-out: IC50 Binding CD36
# [5] = Table 4, LLCPK-1 membranes overexpressing GHS-R1a, radioiodinated (1-28) rat ghrelin as tracer, read-out: EC50 (text: IC50 values from competition curves in GHS-R1a radioreceptor assay)
# [6] = Table 3, rat cardiac membranes, [125I]Tyr-Bpa-Ala-hexarelin as radioligand, read-out: IC50, binding affinity of aza peptide derivatives towards CD36
# CD36, sequence (Q07969 whole entry): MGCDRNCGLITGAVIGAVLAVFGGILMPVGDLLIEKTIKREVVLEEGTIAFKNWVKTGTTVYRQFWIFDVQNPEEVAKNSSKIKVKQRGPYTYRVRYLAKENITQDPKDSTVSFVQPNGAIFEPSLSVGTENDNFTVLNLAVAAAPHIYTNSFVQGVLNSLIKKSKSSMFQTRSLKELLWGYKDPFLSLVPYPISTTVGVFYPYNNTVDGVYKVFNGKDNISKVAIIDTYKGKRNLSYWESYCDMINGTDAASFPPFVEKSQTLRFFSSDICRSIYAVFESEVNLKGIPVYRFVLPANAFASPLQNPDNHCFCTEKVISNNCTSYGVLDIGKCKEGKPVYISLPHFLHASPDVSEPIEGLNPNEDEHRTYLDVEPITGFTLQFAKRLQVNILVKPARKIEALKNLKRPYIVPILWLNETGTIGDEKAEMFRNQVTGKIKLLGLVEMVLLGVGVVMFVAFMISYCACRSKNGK
# human GHS-R1a, sequence (Q92847 whole entry): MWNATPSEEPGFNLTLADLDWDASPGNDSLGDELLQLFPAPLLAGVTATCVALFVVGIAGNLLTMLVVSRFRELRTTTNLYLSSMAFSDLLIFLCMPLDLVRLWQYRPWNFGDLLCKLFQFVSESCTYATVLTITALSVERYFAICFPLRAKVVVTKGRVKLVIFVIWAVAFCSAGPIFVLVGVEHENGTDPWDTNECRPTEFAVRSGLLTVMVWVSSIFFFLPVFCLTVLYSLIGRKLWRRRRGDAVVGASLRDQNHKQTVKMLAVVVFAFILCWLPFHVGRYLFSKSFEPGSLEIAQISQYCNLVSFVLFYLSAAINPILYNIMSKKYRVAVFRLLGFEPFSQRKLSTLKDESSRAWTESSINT
SMILES,"pIC50 [1, 3]","pIC50 [2, 4]",binding activity/affinity at CD36 in words [2],"pIC50 [1, 5]","pIC50 [2, 6]",further results
"CC(C)CN(NC(=O)[C@@H](Cc1c[nH]c2ccccc12)NC(=O)[C@@H](N)Cc1cnc[nH]1)C(=O)N[C@@H](Cc1c[nH]c2ccccc12)C(=O)N[C@H](C)C(=O)N[C@@H](CCCCN)C(N)=O [CP-2B (ii), His-D-Trp-azaLeu-Trp-D-Ala-Lys-NH2] (H-H[dW][azaLeu]W[dA]K-NH2)",< 5.00,5.31,retained significant activity similar to the parent peptide,,,binding affinity for GHS-R1a receptor in words [1]: decreased drastically; binding activity/affinity at CD36 in words ([2]; listed as CP-2B(ii)): without major change
"CC(C)CN(NC(=O)[C@@H](Cc1c[nH]c2ccccc12)NC(=O)[C@@H](N)Cc1cnc[nH]1)C(=O)N[C@@H](C)C(=O)N[C@H](Cc1ccccc1)C(=O)N[C@@H](CCCCN)C(N)=O [CP-2B (iii), His-D-Trp-azaLeu-Ala-D-Phe-Lys-NH2] (H-H[dW][azaLeu]A[dF]K-NH2)",< 5.00,5.02,retained significant activity similar to the parent peptide,,,
"CC(C)CN(NC(=O)[C@@H](Cc1c[nH]c2ccccc12)NC(=O)[C@H](C)N)C(=O)N[C@@H](Cc1c[nH]c2ccccc12)C(=O)N[C@H](Cc1ccccc1)C(=O)N[C@@H](CCCCN)C(N)=O [CP-2B (v), Ala-D-Trp-azaLeu-Trp-D-Phe-Lys-NH2] (H-A[dW][azaLeu]W[dF]K-NH2)",,5.43,retained significant activity similar to the parent peptide,,,binding affinity for GHS-R1a receptor in words [1]: decreased drastically; binding activity/affinity at CD36 in words ([2]; listed as CP-2B(v)): without major change
"C[C@H](NC(=O)[C@@H](Cc1c[nH]c2ccccc12)NC(=O)[C@@H](N)Cc1cnc[nH]1)C(=O)N[C@@H](Cc1c[nH]c2ccccc12)C(=O)N1CCCN1C(=O)N[C@@H](CCCCN)C(N)=O [CP-AP-2, His-D-Trp-Ala-Trp-AzaPro-Lys-NH2] (H-H[dW]AW[azaPro]K-NH2)",< 5.00,< 5.00,,,,
"C[C@H](NC(=O)[C@@H](Cc1c[nH]c2ccccc12)NC(=O)[C@@H](N)Cc1cnc[nH]1)C(=O)N1CCCN1C(=O)N[C@H](Cc1ccccc1)C(=O)N[C@@H](CCCCN)C(N)=O [CP-AP-3, His-D-Trp-Ala-azaPro-D-Phe-Lys-NH2] (H-H[dW]A[azaPro][dF]K-NH2)",< 5.00,< 5.00,,,,
"C[C@H](NC(=O)[C@@H](Cc1c[nH]c2ccccc12)NC(=O)[C@@H](N)Cc1cnc[nH]1)C(=O)NN(Cc1ccccc1)C(=O)N[C@H](Cc1ccccc1)C(=O)N[C@@H](CCCCN)C(N)=O [DBG253-1, His-D-Trp-Ala-azaPhe-D-Phe-Lys-NH2] (H-H[dW]A[azaPhe][dF]K-NH2)",,,maintaining the binding activity,5.56,5.87,binding affinity for GHS-R1a receptor in words [1]: reducing the binding affinity
"CC(C)CN(NC(=O)[C@H](C)NC(=O)[C@@H](Cc1c[nH]c2ccccc12)NC(=O)[C@@H](N)Cc1cnc[nH]1)C(=O)N[C@H](Cc1ccccc1)C(=O)N[C@@H](CCCCN)C(N)=O [DBG253-2, His-D-Trp-Ala-azaLeu-D-Phe-Lys-NH2] (H-H[dW]A[azaLeu][dF]K-NH2)",,,,4.71,2.54,
"C[C@H](NC(=O)[C@@H](Cc1c[nH]c2ccccc12)NC(=O)[C@@H](N)Cc1cnc[nH]1)C(=O)NN(CC1CCCCC1)C(=O)N[C@H](Cc1ccccc1)C(=O)N[C@@H](CCCCN)C(N)=O [DBG253-4, His-D-Trp-Ala-azaCha-D-Phe-Lys-NH2] (H-H[dW]A[X1][dF]K-NH2)",,,,5.37,2.68,
"C[C@H](NC(=O)[C@@H](Cc1c[nH]c2ccccc12)NC(=O)[C@@H](N)Cc1cnc[nH]1)C(=O)NN(CCc1ccccc1)C(=O)N[C@H](Cc1ccccc1)C(=O)N[C@@H](CCCCN)C(N)=O [DBG253-5, His-D-Trp-Ala-azahomoPhe-D-Phe-Lys-NH2] (H-H[dW]A[X2][dF]K-NH2)",,,,5.43,< 5.00,
"C[C@H](NC(=O)[C@@H](Cc1c[nH]c2ccccc12)NC(=O)[C@@H](N)Cc1cnc[nH]1)C(=O)N[C@@H](Cc1ccc(O)cc1)C(=O)N[C@H](Cc1ccccc1)C(=O)N[C@@H](CCCCN)C(N)=O [DBG253-7, His-D-Trp-Ala-Tyr-D-Phe-Lys-NH2] (H-H[dW]AY[dF]K-NH2)",,,,6.11,4.88,
"C[C@H](NC(=O)[C@@H](Cc1c[nH]c2ccccc12)NC(=O)[C@@H](N)Cc1cnc[nH]1)C(=O)N[C@H](Cc1ccc(O)cc1)C(=O)N[C@H](Cc1ccccc1)C(=O)N[C@@H](CCCCN)C(N)=O [DBG253-8, His-D-Trp-Ala-D-Tyr-D-Phe-Lys-NH2] (H-H[dW]A[dY][dF]K-NH2)",,,,5.49,4.92,
"C[C@H](NC(=O)N(Cc1ccccc1)NC(=O)[C@@H](N)Cc1cnc[nH]1)C(=O)N[C@@H](Cc1c[nH]c2ccccc12)C(=O)N[C@H](Cc1ccccc1)C(=O)N[C@@H](CCCCN)C(N)=O [DBG253-9, His-azaPhe-Ala-Trp-D-Phe-Lys-NH2] (H-H[azaPhe]AW[dF]K-NH2)",,,,4.79,4.14,
"C[C@H](NC(=O)N(CC1CCCCC1)NC(=O)[C@@H](N)Cc1cnc[nH]1)C(=O)N[C@@H](Cc1c[nH]c2ccccc12)C(=O)N[C@H](Cc1ccccc1)C(=O)N[C@@H](CCCCN)C(N)=O [DBG253-13, His-azaCha-Ala-Trp-D-Phe- Lys-NH2] (H-H[X1]AW[dF]K-NH2)",,,,5.26,< 5.00,

# — patent US9708370B2, “Azapeptides as CD36 binding compounds” (VALORISATION-RECHERCHE, LIMITED PARTNERSHIP, priority 2007, dated 2017)
